# Source: ChEMBL document CHEMBL1149146, “Synthesis and biological evaluation of new 1,2-dihydro-4-hydroxy-2-oxo-3-quinolinecarboxamides for treatment of autoimmune disorders: structure-activity relationship” (2004)
# What was measured:
# Assay type in all cases: functional
# Mus musculus [1] = assay: Inhibition of acute experimental autoimmune encephalomyelitis in SJL/N mice by 5 mg/kg/day p.o./s.c.; conditions: route oral
# Mus musculus [2] = assay: Inhibition of acute experimental autoimmune encephalomyelitis (aEAE) induced in SJL/N mice at a dose of 0.2 mg/kg/day, (po/sc) was determined; Inactive
# Mus musculus [3] = assay: Inhibition of acute experimental autoimmune encephalomyelitis in SJL/N mice by 1 mg/kg/day p.o./s.c.; conditions: route oral
# Mus musculus [4] = assay: Inhibition of acute experimental autoimmune encephalomyelitis (aEAE) induced in SJL/N mice at a dose of 5 mg/kg/day was determined
# Mus musculus [5] = assay: Inhibition of acute experimental autoimmune encephalomyelitis (aEAE) induced in SJL/N mice at a dose of 1 mg/kg/day, (sc) was determined; Inactive
# Mus musculus [6] = assay: Inhibition of acute experimental autoimmune encephalomyelitis (aEAE) induced in SJL/N mice at a dose of 0.2 mg/kg/day, (sc) was determined; Inactive
# Mus musculus [7] = assay: Inhibition of acute experimental autoimmune encephalomyelitis (aEAE) induced in SJL/N mice at a dose of 1 mg/kg/day, (po/sc) was determined; Inactive
# Mus musculus [8] = assay: Inhibition of acute experimental autoimmune encephalomyelitis (aEAE) induced in SJL/N mice at a dose of 5 mg/kg/day, (po/sc) was determined; Inactive
# Mus musculus [9] = assay: Inhibition of acute experimental autoimmune encephalomyelitis in SJL/N mice by 0.2 mg/kg/day p.o./s.c.; conditions: po
# Mus musculus [10] = assay: Inhibition of acute experimental autoimmune encephalomyelitis (aEAE) in SJL/N mice at a dose of 1 mg/kg/day, (po/sc) was determined
# Mus musculus [11] = assay: Inhibition of acute experimental autoimmune encephalomyelitis (aEAE) in SJL/N mice at a dose of 5 mg/kg/day, (po/sc) was determined
compound,measurement,setting,value
CCN(C(=O)c1c(O)c2cc(Cl)ccc2n(C)c1=O)c1ccccc1,inhibition in vivo at 5 mg/kg/day,Mus musculus [1],83%
same,inhibition in vivo at 0.2 mg/kg/day,Mus musculus [2],< 35%
same,inhibition in vivo at 1 mg/kg/day,Mus musculus [3],62%
CN(C(=O)c1c(O)c2cccc(F)c2n(C)c1=O)c1ccc(F)cc1,inhibition in vivo at 5 mg/kg/day,Mus musculus [4],55%
same,inhibition in vivo at 1 mg/kg/day,Mus musculus [5],< 35%
same,inhibition in vivo at 0.2 mg/kg/day,Mus musculus [6],< 35%
COc1ccc(N(C)C(=O)c2c(O)c3ccccc3n(C3CC3)c2=O)cc1,inhibition in vivo at 1 mg/kg/day,Mus musculus [7],< 35%
same,inhibition in vivo at 5 mg/kg/day,Mus musculus [8],< 35%
CN(C(=O)c1c(O)c2ccccc2n(C)c1=O)c1ccccc1 [ROQUINIMEX],inhibition in vivo at 0.2 mg/kg/day,Mus musculus [9],35%
same,inhibition in vivo at 1 mg/kg/day,Mus musculus [10],43%
same,inhibition in vivo at 5 mg/kg/day,Mus musculus [11],71%
